Results taken from US20150133516A1, “Methods and Compositions for Treating ADHD” (priority 2013, published 2015).

What was measured:
clinical = conditions: human, in vivo
α2 receptors = experiment: receptor binding affinities / selectivity against other molecular targets
Procedure: (§1) The pharmacological activity and selectivity of these compounds can be determined using published test procedures. […] (See, e.g., The Alpha-2 Adrenergic Receptors, L. E. Limbird, ed., Humana Press, Clifton, N.J.) The following in vivo assays are typically conducted in rodents or other species. Central nervous system activity is determined by measuring locomotor activity as an index of sedation. (See, e.g., Spyraki, C. & H. Fibiger, “Clonidine-induced Sedation in Rats: Evidence for Mediation by Postsynaptic Alpha-2 Adrenoreceptors”, Journal of Neural Transmission, Vol. 54 (1982), pp. 153-163). Nasal decongestant activity is measured using rhinomanometry as an estimate of nasal airway resistance. […] Antiglaucoma activity is determined by measuring intraocular pressure. […] Antidiarrheal activity is determined by measuring the ability of the compounds to inhibit prostaglandin-induced diarrhea. […] Efficacy in treating irritable bowel syndrome is determined by measuring the ability of compounds to reduce the stress-induced increase in fecal output. […] Antiasthma activity is determined by measuring the effect of the compound on bronchoconstriction associated with pulmonary challenges such as inhaled antigens. […] Activity in cough is determined by measuring the number and latency of the cough response to respiratory challenges such as inhaled citric acid. […]

α2 adrenergic receptors = experiment: alpha 2/alpha1 functional selectivity (in vitro functional potencies); assay type: biochemical
Procedure: as §1

[1] = test system: spontaneously hypertensive rats (SHR); experiment: delayed gratification response paradigm in SHR animal model of ADHD; assay type: in vivo, rat; conditions: 5, 10, 25 or 50 mg/kg over twenty-one days
Text: In this study, spontaneously hypertensive rats (SHR) are used as an animal model for ADHD. The SHR animal model is described in Russell et al., 2000, Behavioral Brain Research, 117: 69-74; Russell, 2001, Metab. Brain Dis., 16: 143-149; and Sagvolden et al., 1992, Behav. Neural Biol., 58: 103-112. The study consists of two groups of rats: normal and SHR. Each group is further divided into two subgroups: placebo and AR08. The AR08 subgroup is further divided into four subgroups and each subgroup is administered 5, 10, 25, or 50 mg/kg of AR08. The AR08 is administered to the rats over a period of twenty-one days. The rats are from the normal and SHR groups are trained in the delayed gratification response paradigm as described in Charrier et al., 1996, Pharmacology and Biochemistry and Behavior, 54: 149-157. In this paradigm, rats learn to choose between five food pellets delivered after 30 seconds and one food pellet delivered after 5 seconds. Normal rats learn to choose the five food pellets delivered after 30 seconds at a higher frequency.

Row | SMILES | half-life (clinical) [h] | binding to targets other than α2 receptors (α2 receptors) | selectivity for the α2 adrenergic receptors (α2 receptors; versus a wide range of other molecular targets) | alpha 2/alpha1 functional selectivity (α2 adrenergic receptors) | amount of time required by SHR rats to choose five food pellets delivered after 30 seconds at a higher frequency [1]
1 | Cc1c(N=C2NCCN2)cc(C#N)c2[nH]cnc12 [Compound I, N-(4,5-Dihydro-1H-imidazol-2-yl)-7-cyano-4-methyl-1H-benzimidazol-5-amine] | 26 to 40 | no relevant binding | highly selective | about 70 fold | –
2 | Cc1c(N=C2NCCN2)cc(C#N)c2[nH]cnc12 [AR08, N-(4,5-Dihydro-1H-imidazol-2-yl)-7-cyano-4-methyl-1H-benzimidazol-5-amine acetate] | – | – | – | – | reduced
